Measured values from patent US12435059B2, “AMP-activated protein kinase inhibitors and methods of making and using the same” (The Regents of the University of Colorado, priority 2019, dated 2025).
Read-outs that look alike come from different tables or passages of the source.

Columns and labels:
Test in all cases: biochemical
Assay type in all cases: binding
468 kinases [1] = molecular target: 468 kinases (Homo sapiens, UniProt Q14004); conditions: read-out: % Inhibition @ 100 nM, CDC2L5
468 kinases [2] = molecular target: 468 kinases (Homo sapiens, UniProt O95382); conditions: ASK2; read-out: % Inhibition @ 100 nM
468 kinases [3] = molecular target: 468 kinases (Homo sapiens, UniProt P36888, D835Y); conditions: FLT3(D835Y); read-out: % Inhibition @ 100 nM
468 kinases [4] = molecular target: 468 kinases (Homo sapiens, UniProt Q6ZN16); conditions: MAP3K15; read-out: % Inhibition @ 100 nM
468 kinases [5] = molecular target: 468 kinases (Homo sapiens, UniProt P08069); conditions: IGFIR; read-out: % Inhibition @ 100 nM
468 kinases [6] = molecular target: 468 kinases (Homo sapiens, UniProt P09619); conditions: PDGFRB; read-out: % Inhibition @ 100 nM
468 kinases [7] = molecular target: 468 kinases (Homo sapiens, UniProt Q99640); conditions: PKMYT1; read-out: % Inhibition @ 100 nM
468 kinases [8] = molecular target: 468 kinases (Homo sapiens, UniProt P53779); conditions: JNK3; read-out: % Inhibition @ 100 nM
468 kinases [9] = molecular target: 468 kinases (Homo sapiens, UniProt Q02750); conditions: MEK1; read-out: % Inhibition @ 100 nM
468 kinases [10] = molecular target: 468 kinases (Homo sapiens, UniProt Q13873); conditions: BMPR2; read-out: % Inhibition @ 100 nM
468 kinases [11] = molecular target: 468 kinases (Homo sapiens, UniProt Q9H2X6); conditions: HIPK2; read-out: % Inhibition @ 100 nM
468 kinases [12] = molecular target: 468 kinases (Homo sapiens, UniProt Q9NRH2); conditions: SNRK; read-out: % Inhibition @ 100 nM
468 kinases [13] = molecular target: 468 kinases (Homo sapiens, UniProt O96017); conditions: CHEK2; read-out: % Inhibition @ 100 nM
468 kinases [14] = molecular target: 468 kinases (Homo sapiens, UniProt Q13233); conditions: MAP3K1; read-out: % Inhibition @ 100 nM
468 kinases [15] = molecular target: 468 kinases (Homo sapiens, UniProt O60285); conditions: ARK5; read-out: % Inhibition @ 100 nM
468 kinases [16] = molecular target: 468 kinases (Homo sapiens, UniProt O00141); conditions: SGK; read-out: % Inhibition @ 100 nM
468 kinases [17] = molecular target: 468 kinases (Homo sapiens, UniProt P07949); conditions: RET; read-out: % Inhibition @ 100 nM
468 kinases [18] = molecular target: 468 kinases (Homo sapiens, UniProt Q13555); conditions: CAMK2G; read-out: % Inhibition @ 100 nM
468 kinases [19] = molecular target: 468 kinases (Homo sapiens, UniProt Q16832); conditions: DDR2; read-out: % Inhibition @ 100 nM
468 kinases [20] = molecular target: 468 kinases (Homo sapiens, UniProt Q15418); conditions: read-out: % Inhibition @ 100 nM
468 kinases [21] = molecular target: 468 kinases (Homo sapiens, UniProt P07948); conditions: LYN; read-out: % Inhibition @ 100 nM
468 kinases [22] = molecular target: 468 kinases (Homo sapiens, UniProt Q9HC98); conditions: NEK6; read-out: % Inhibition @ 100 nM
468 kinases [23] = molecular target: 468 kinases (Homo sapiens, UniProt O75676); conditions: read-out: % Inhibition @ 100 nM
468 kinases [24] = molecular target: 468 kinases (Homo sapiens, UniProt P49841); conditions: GSK3B; read-out: % Inhibition @ 100 nM
468 kinases [25] = molecular target: 468 kinases (Homo sapiens, UniProt P35590); conditions: TIEI; read-out: % Inhibition @ 100 nM
468 kinases [26] = molecular target: 468 kinases (Homo sapiens, UniProt Q8NG66); conditions: NEK11; read-out: % Inhibition @ 100 nM
468 kinases [27] = molecular target: 468 kinases (Homo sapiens, UniProt P53778); conditions: p38-gamma; read-out: % Inhibition @ 100 nM
468 kinases [28] = molecular target: 468 kinases (Homo sapiens, UniProt Q6XUX3); conditions: RIPK5; read-out: % Inhibition @ 100 nM
468 kinases [29] = molecular target: 468 kinases (Homo sapiens, UniProt P30530); conditions: AXL; read-out: % Inhibition @ 100 nM
468 kinases [30] = molecular target: 468 kinases (Homo sapiens, UniProt Q13627); conditions: DYRK1A; read-out: % Inhibition @ 100 nM
468 kinases [31] = molecular target: 468 kinases (Homo sapiens, UniProt Q9Y6E0); conditions: MST3; read-out: % Inhibition @ 100 nM
468 kinases [32] = molecular target: 468 kinases (Homo sapiens, UniProt O95747); conditions: OSR1; read-out: % Inhibition @ 100 nM
468 kinases [33] = molecular target: 468 kinases (Homo sapiens, UniProt P29376); conditions: LTK; read-out: % Inhibition @ 100 nM

CCN(CC)CCNC(=O)c1c(C)[nH]c(/C=C2\C(=O)Nc3ccc(CCC(N)=O)cc32)c1C [Compound No. 16, (Z)-5-((5-(3-Amino-3-oxopropyl)-2-oxoindolin-3-ylidene)methyl)-N-(2-(diethylamino)ethyl)-2,4-dimethyl-1H-pyrrole-3-carboxamide] was tested, and the inhibition at 0.1 µM (468 kinases [1]) was 50%, the inhibition at 0.1 µM (468 kinases [2]) was 47% and the inhibition at 0.1 µM (468 kinases [3]) was 100%. The inhibition at 0.1 µM (468 kinases [4]) was 71%, the inhibition at 0.1 µM (468 kinases [5]) was 6% and the inhibition at 0.1 µM (468 kinases [6]) was 61%. For the same molecule, the inhibition at 0.1 µM (468 kinases [7]) was 18%, the inhibition at 0.1 µM (468 kinases [8]) was 55% and the inhibition at 0.1 µM (468 kinases [9]) was 56%. For the same molecule, the inhibition at 0.1 µM (468 kinases [10]) was 50%, the inhibition at 0.1 µM (468 kinases [11]) was 99.5% and the inhibition at 0.1 µM (468 kinases [12]) was 10%. For the same molecule, the inhibition at 0.1 µM (468 kinases [13]) was 93.2%, the inhibition at 0.1 µM (468 kinases [14]) was 36% and the inhibition at 0.1 µM (468 kinases [15]) was 71%. It also gave an inhibition at 0.1 µM (468 kinases [16]) of 47%, an inhibition at 0.1 µM (468 kinases [17]) of 60% and an inhibition at 0.1 µM (468 kinases [18]) of 18%. For the same molecule, the inhibition at 0.1 µM (468 kinases [19]) was 27%, the inhibition at 0.1 µM (468 kinases [20]; RSK1(Kin.Dom.1-N-terminal)) was 20% and the inhibition at 0.1 µM (468 kinases [20]; RSK1(Kin.Dom.2-C-terminal)) was 30%. It also gave an inhibition at 0.1 µM (468 kinases [21]) of 9%, an inhibition at 0.1 µM (468 kinases [22]) of 0% and an inhibition at 0.1 µM (468 kinases [23]; RPS6KA4(Kin.Dom.1-N-terminal)) of 34%. The inhibition at 0.1 µM (468 kinases [23]; RPS6KA4(Kin.Dom.2-C-terminal)) was 35%, the inhibition at 0.1 µM (468 kinases [24]) was 36% and the inhibition at 0.1 µM (468 kinases [25]) was 14%. It also gave an inhibition at 0.1 µM (468 kinases [26]) of 36%, an inhibition at 0.1 µM (468 kinases [27]) of 15% and an inhibition at 0.1 µM (468 kinases [28]) of 3%. It also gave an inhibition at 0.1 µM (468 kinases [29]) of 92.5%, an inhibition at 0.1 µM (468 kinases [30]) of 93.3% and an inhibition at 0.1 µM (468 kinases [31]) of 19%. The inhibition at 0.1 µM (468 kinases [32]) was 47% and the inhibition at 0.1 µM (468 kinases [33]) was 0%.
CCN(CC)CCNC(=O)c1c(C)[nH]c(/C=C2\C(=O)Nc3ccc(CCO)cc32)c1C [Compound No. 10, (Z)—N-(2-(Diethylamino)ethyl)-5-((5-(2-hydroxyethyl)-2-oxoindolin-3-ylidene)methyl)-2,4-dimethyl-1H-pyrrole-3-carboxamide] showed an inhibition at 0.1 µM (468 kinases [1]) of 27%, an inhibition at 0.1 µM (468 kinases [2]) of 0% and an inhibition at 0.1 µM (468 kinases [3]) of 100%. The inhibition at 0.1 µM (468 kinases [4]) was 0%, the inhibition at 0.1 µM (468 kinases [5]) was 0% and the inhibition at 0.1 µM (468 kinases [6]) was 99.3%. It also gave an inhibition at 0.1 µM (468 kinases [7]) of 19%, an inhibition at 0.1 µM (468 kinases [8]) of 0% and an inhibition at 0.1 µM (468 kinases [9]) of 64%. It also gave an inhibition at 0.1 µM (468 kinases [10]) of 0%, an inhibition at 0.1 µM (468 kinases [11]) of 58% and an inhibition at 0.1 µM (468 kinases [12]) of 12%. For the same molecule, the inhibition at 0.1 µM (468 kinases [13]) was 83%, the inhibition at 0.1 µM (468 kinases [14]) was 0% and the inhibition at 0.1 µM (468 kinases [15]) was 84%. It also gave an inhibition at 0.1 µM (468 kinases [16]) of 2%, an inhibition at 0.1 µM (468 kinases [17]) of 55% and an inhibition at 0.1 µM (468 kinases [18]) of 8%. For the same molecule, the inhibition at 0.1 µM (468 kinases [19]) was 12%, the inhibition at 0.1 µM (468 kinases [20]; RSK1(Kin.Dom.1-N-terminal)) was 4% and the inhibition at 0.1 µM (468 kinases [20]; RSK1(Kin.Dom.2-C-terminal)) was 0%. For the same molecule, the inhibition at 0.1 µM (468 kinases [21]) was 6%, the inhibition at 0.1 µM (468 kinases [22]) was 19% and the inhibition at 0.1 µM (468 kinases [23]; RPS6KA4(Kin.Dom.1-N-terminal)) was 8%. For the same molecule, the inhibition at 0.1 µM (468 kinases [23]; RPS6KA4(Kin.Dom.2-C-terminal)) was 0%, the inhibition at 0.1 µM (468 kinases [24]) was 0% and the inhibition at 0.1 µM (468 kinases [25]) was 2%. The inhibition at 0.1 µM (468 kinases [26]) was 0%, the inhibition at 0.1 µM (468 kinases [27]) was 14% and the inhibition at 0.1 µM (468 kinases [28]) was 0%. For the same molecule, the inhibition at 0.1 µM (468 kinases [29]) was 88%, the inhibition at 0.1 µM (468 kinases [30]) was 74% and the inhibition at 0.1 µM (468 kinases [31]) was 20%. For the same molecule, the inhibition at 0.1 µM (468 kinases [32]) was 0% and the inhibition at 0.1 µM (468 kinases [33]) was 8%.
